Read-outs that look alike come from different tables or passages of the source.
Legend:
HT-29 cells = assay: Western blot analysis of apoptosis markers and p53 (Part 5); format: cell-based, human; conditions: for p53 expression (Western blot): HT-29 (p53 mutant), 24 hours, M2, 6S 10, 20 or 40 μM, 8S, M2′, 10S, M2″ 20 μM
Procedure: Cell lysates were prepared in ice-cold RIPA lysis buffer [25 mM Tris-HCl (pH 7.6), 150 mM NaCl, 1% NP-40, 1% sodium deoxycholate, 0.1% SDS, Thermo Fisher Scientific] supplemented with a protease inhibitor cocktail (AEBSF, aprotinin, bestatin, E-64, leupeptin and pepstatin A in DMSO with EDTA, Thermo Fisher Scientific). Protein content was measured by a Pierce BCA Assay Kit (Thermo Fisher Scientific). Protein contents of cell lysates (30 μg protein/lane) were resolved by SDS-PAGE. Proteins were then electro-transferred onto PVDF membranes and blots were blocked for one hour at room temperature in 1×TBS with 1% Casein (Bio-Rad Laboratories, Berkeley, Calif.). Blots were then incubated overnight at 4° C. with the desired primary antibody diluted in TBS with 0.5% Tween-20. Blots were then washed with TBS-Tween 20 and probed for 1 hour with the appropriate secondary antibody (1:1000). Protein bands were visualized with chemiluminescence using West Femto maximum detection substrate (Thermo Fisher Scientific). To confirm equal protein loading in each lane, immunoblots were stripped and re-probed for β-actin. Protein fold-induction was calculated by normalizing the intensity of the band of interest to β-actin first, and then to DMSO control lanes.

A549 lung cancer cells = conditions: for tumor weight lower (minus % compared to DMSO-treated control): after 7 weeks; for BrdU+ cells/field in tumor tissue: control about 6.3; for TUNEL+ cells/field in tumor tissue: control about 15.5; for tumor size versus control group: 6S 30 mg/kg, M2 30 mg/kg, M14 10 mg/kg, oral gavage 5×/week
Procedure: Nu/J nude mice were obtained from Jackson Laboratories (Bar Harbor, Me.). Animals were randomized into 4 groups. A549 cells (5×10^6 cells) were implanted in both flanks of 8-weeks old Nu/J mice. One week after implantation, animals were given 100 μl of the following treatments through oral gavage 5 times/week: DMSO 0.25 ml/kg (control; n=4); 6S 10 mg/kg (n=4); 6S 30 mg/kg (n=4) or M2 30 mg/kg (n=5). Compounds were diluted in a solution of 5% DMSO in corn oil. Animal body weight and tumor volume were recorded for the duration of the experiment. Tumor volume was calculated by measuring the length and width of the tumors using a digital caliper and using the formula (Length×Width^2)/2. One hour before sacrifice, mice were given one last treatment dose as well as one intra-peritoneal injection of BrdU (7.5 mg/kg in 100 μl PBS). After 7 weeks, tumor tissues were harvested and weighed. A portion of the tumors was snap frozen in liquid nitrogen and another portion was placed in a histology cassette and immersed in formalin solution.
[…] tissues were sent to Precision Histology Lab (Oklahoma City, Okla.) for embedding in paraffin blocks. Then paraffin blocks were processed into 3-4 μm sections that were then put on microscope slides. Sections were then deparaffinized by using a succession of 3 baths of xylene (5 minutes each), 2 baths of absolute ethanol (5 minutes each), 95% ethanol for 3 minutes, 70% ethanol for 3 minutes, and rinsed in PBS. Immunostaining with TUNEL (terminal deoxynucleotidyl transferase dUTP nick end labeling) and BrdU staining kits was performed following manufacturer's recommendation. For staining quantification, sequential high-power field pictures of tumors were taken (10 pictures per tumor) using an A1 Zeiss microscope (Oberkochen, Germany). Images were processed using the Image J software, which was used to count positive, brown-colored cells in each field. Average number per tumor was calculated by averaging the number obtained for each field, and the average number of positive cells per group was obtained by averaging the values of each tumor belonging to the experimental group.
8 week-old nude mice (Jackson Laboratory, Maine) were randomized into 5 groups based on treatment (DMSO: n=4; 6S 10 mg/kg: n=4 (“6S 10”); 6S 30 mg/kg: n=4 (“6S 30”); M2 30 mg/kg: n=5 (“M2 30”); M14 10 mg/kg: n=4 (“M14 10”)). Animals were implanted with 5×10^6 A549 lung cancer cells (adenocarcinomic human alveolar basal epithelial cells) on each flank. The mice had access to food and water ad libitum. One week post implantation, the animals started receiving their respecting treatments through oral gavage (100 μl in corn oil and 5% DMSO), 5×/week. After 7 weeks of treatment, the tumor tissues were harvested.

HCT-116 cells = assay: TUNEL apoptosis assay (Part 2); format: cell-based, human; conditions: HCT-116, 20 or 40 μM
Procedure: HCT-116 and H1299 cells were seeded in 6-well plates at 1×10^5 cells/well and incubated at 37° C. in 5% CO2 incubator. After 24 hours, fresh media supplemented with DMSO (control), [6]-shogaol, M2, M6, or M13 metabolites (20 μM or 40 μM) were added to the wells. After 6 or 24 hours incubation at 37° C. in 5% CO2 incubator, cells were washed and pre-treated for 15 min at room temperature with a solution of 20 μg/ml proteinase K. Cells were then washed twice with phosphate buffer saline pH 7.4 (PBS) and fixed for 10 min at room temperature using 10% neutral formaldehyde solution. After 2 washes in ddH2O, cells were resuspended in 100 μL ddH2O and applied on silanized microscope slides. Slides were incubated overnight at 37° C., and washed twice with PBS. TUNEL assay was then carried out according to the manufacturer's protocol. Cells were observed under 400× power using a Zeiss microscope A1 (Thornwood, N.Y.). 10 fields per slide were evaluated, and TUNEL+ cells (with brown coloration in the nucleus) were expressed as a percentage of the total number of cells contained in a field.

[1] = tested on: human lung cancer cells H-1299; assay: MTT growth inhibition of human cancer and normal cells (Part 2); format: cell-based; conditions: H-1299, 48 h, 0 to 80 μM
Procedure: (§1) Growth inhibition of human cancer and normal cells. Cell growth inhibition was determined by a MTT colorimetric assay. Human colon cancer cells HCT-116, human lung cancer cells H-1299, human colon fibroblast cells CCD-18Co, and human lung fibroblast cells IMR-90 were plated in 96-well microtiter plates with 3000 cells/well and allowed to attach for 24 h at 37° C. […] After the cells were cultured for 48 h, the medium was aspirated and cells were treated with 200 μL fresh medium containing 2.41 mmol/L MTT. […] The reading reflected the number of viable cells and was expressed as a percentage of viable cells in the control. Both HCT-116 and H-1299 cells were cultured in McCoy's 5A medium. CCD-18Co and IMR-90 cells were cultured in Eagle's modified essential medium (EMEM). All of the above media were supplemented with 10% fetal bovine serum, 1% penicillin/streptomycin, and 1% glutamine, and the cells were kept in a 37° C. incubator with 95% humidity and 5% CO2.

[2] = tested on: human colon cancer cells HCT-116; assay: as above; format: cell-based; conditions: HCT-116, 48 h, 0 to 80 μM
Procedure: as §1

[3] = M2 30 mg/kg vs 6S 30 mg/kg, 7 weeks

Compound	p53 expression (Western blot) (HT-29 cells)	Bcl-2 levels (Western blot, vs DMSO) (HT-29 cells; HT-29, 40 μM) [fold]	PUMA induction (Western blot, vs DMSO) (HT-29 cells; HT-29, 40 μM) [fold]	XIAP expression (Western blot, vs DMSO) (HT-29 cells; HT-29, 40 μM) [fold]	cleaved caspase 9 (Western blot, vs DMSO) (HT-29 cells; HT-29, 40 μM) [fold]	cytochrome c release (Western blot, vs DMSO) (HT-29 cells; HT-29, 40 μM) [fold]	tumor weight lower (minus % compared to DMSO-treated control) (A549 lung cancer cells; 30 mg/kg oral gavage 5×/week) [%]	BrdU+ cells/field in tumor tissue (A549 lung cancer cells; 30 mg/kg) [BrdU+ cells/field]	TUNEL+ cells/field in tumor tissue (A549 lung cancer cells; 30 mg/kg) [TUNEL+ cells/field]	tumor size versus control group (A549 lung cancer cells; 7 weeks)	decrease of tumor burden relative to the equivalent 6S group (A549 lung cancer cells; [3]) [%]	lower tumor burden than the equivalent 6S group compared to DMSO (A549 lung cancer cells; [3]) [%]	changes in body weight between groups (A549 lung cancer cells; oral gavage up to 7 weeks)	induction of apoptosis (TUNEL) versus DMSO (HCT-116 cells; 6 hours)	induction of apoptosis (TUNEL) versus DMSO (HCT-116 cells; 24 hours)	IC50 [1] [µM]	IC50 [2] [µM]	tumor weight lower (minus % compared to DMSO-treated control) (A549 lung cancer cells; 10 mg/kg oral gavage 5×/week, not significant) [%]	BrdU+ cells/field in tumor tissue (A549 lung cancer cells; 10 mg/kg) [BrdU+ cells/field]	TUNEL+ cells/field in tumor tissue (A549 lung cancer cells; 10 mg/kg) [TUNEL+ cells/field]
CCCCCC(CC(=O)CCc1ccc(O)c(OC)c1)SC[C@H](N)C(=O)O (stereo partly shown) [M2, 5-cysteinyl-[6]-shogaol]	dose-dependent up-regulation of p53	~0.1	~17	~0.3	~4.6	~2.2	53.7	5.7	28.6	Reduction in tumor size	21.8	12.9	did not induce any significant changes in body weight	higher levels of apoptosis	Apoptosis was observed	25.8	24.4			
CCCCC/C=C/C(=O)CCc1ccc(O)c(OC)c1 [[6]-shogaol, reference compound]	dose-dependent up-regulation of p53						40.8	3.4	32.6	Reduction in tumor size				higher levels of apoptosis		17.9	18.2	25.6	4.7	27.8

Reference: patent publication US9549911B2, “Ginger metabolites and uses thereof” (North Carolina A&T State University, priority 2012, dated 2017)
